Data set [1] deals with Wnt3a-dependent TCF/LEF activation. The data set can be described thus: TOP-FLASH luciferase assay without the addition of Notum (control). The class given is cell-based. Particulars: concentrations up to 1 mM, no Notum added. The method, then: . OPTS is a common lipase substrate with an octanoyl lipid linked to a fluorescent moiety. It is not a natural Notum substrate; however, it can be used to quantify the enzymatic activity of purified Notum protein[23],[25],[28]. […]. […]. […]. The stable HEK293 STF cell line[31] carrying the Super Top Flash firefly luciferase reporter was split into 96-well plates and transfected 24 h later with a constitutive Renilla luciferase plasmid (pRL-TK, Promega) at 20 ng DNA per well using Lipofectamine 2000 (Life Technologies, UK). The media were replaced with test media 16 h later. […] The firefly and Renilla luciferase activities were measured 24 h later with Dual-Glo luciferase reporter assay system (Promega, Madison, WI) using an Ascent Lunimoskan luminometer (Labsystems). The firefly luciferase activity was normalized to Renilla luciferase activity (relative light unit, RLU). Luciferase reporter assays were performed in triplicate.
Supplementary Figure 1. […].

The conditions of data set [2]: in vivo; cited from earlier work.

For `Cn1c(=O)c2c(ncn2C)n(C)c1=O` [caffeine, 1,3,7-trimethylxanthine], the “Effect on Wnt3a-induced luciferase activity without Notum” value in data set [1] is listed as “did not affect luciferase activity”. In addition, the “Plasma concentration at therapeutic use” value in data set [2] is ≤ 150 µM.
